Test results from patent US10689378B2, “Triazolopyridine compounds and uses thereof” (Novartis AG, priority 2016, dated 2020).
Where two headings read alike, the source gives them in different places.

Legend:
EED (1-441)-His protein = biological target: T1, EED (1-441)-His protein (Homo sapiens, UniProt O75530); experiment: EED-H3K27Me3 peptide competition binding assay by AlphaScreen
T1 construct: 30 nM EED (1-441)-His protein
In short: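 Serially diluted compound (12 points, 3-fold) incubated 20 min with 30 nM EED(1-441)-His and 15 nM biotin-H3K27Me3(19-33) peptide in 25 mM HEPES pH 8, 0.02% Tween-20, 0.5% BSA. Ni-chelate acceptor/streptavidin donor beads (10 μg/mL each) added, 1 h rt dark; 615 nm emission normalized to controls, dose-response fit for IC50.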

[1] = biological target: wild type PRC2 (wtPRC2) complex (Homo sapiens, UniProt O75530); experiment: EED LC-MS assay (SAH production by PRC2); format: biochemical
wild type PRC2 (wtPRC2) complex, sequence (O75530 whole entry): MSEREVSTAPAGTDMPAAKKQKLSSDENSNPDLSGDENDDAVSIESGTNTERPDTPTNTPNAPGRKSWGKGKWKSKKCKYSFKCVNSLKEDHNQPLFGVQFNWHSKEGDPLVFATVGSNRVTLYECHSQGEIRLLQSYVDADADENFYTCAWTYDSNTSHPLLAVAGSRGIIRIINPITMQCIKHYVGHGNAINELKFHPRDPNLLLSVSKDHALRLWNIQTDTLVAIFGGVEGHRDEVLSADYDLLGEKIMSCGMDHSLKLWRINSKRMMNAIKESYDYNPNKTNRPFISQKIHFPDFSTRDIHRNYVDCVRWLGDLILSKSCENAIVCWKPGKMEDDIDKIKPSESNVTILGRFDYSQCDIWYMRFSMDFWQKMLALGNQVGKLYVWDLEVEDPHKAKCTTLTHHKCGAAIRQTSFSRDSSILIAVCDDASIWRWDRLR
wild type PRC2 (wtPRC2) complex, sequence (Q15910 whole entry partner): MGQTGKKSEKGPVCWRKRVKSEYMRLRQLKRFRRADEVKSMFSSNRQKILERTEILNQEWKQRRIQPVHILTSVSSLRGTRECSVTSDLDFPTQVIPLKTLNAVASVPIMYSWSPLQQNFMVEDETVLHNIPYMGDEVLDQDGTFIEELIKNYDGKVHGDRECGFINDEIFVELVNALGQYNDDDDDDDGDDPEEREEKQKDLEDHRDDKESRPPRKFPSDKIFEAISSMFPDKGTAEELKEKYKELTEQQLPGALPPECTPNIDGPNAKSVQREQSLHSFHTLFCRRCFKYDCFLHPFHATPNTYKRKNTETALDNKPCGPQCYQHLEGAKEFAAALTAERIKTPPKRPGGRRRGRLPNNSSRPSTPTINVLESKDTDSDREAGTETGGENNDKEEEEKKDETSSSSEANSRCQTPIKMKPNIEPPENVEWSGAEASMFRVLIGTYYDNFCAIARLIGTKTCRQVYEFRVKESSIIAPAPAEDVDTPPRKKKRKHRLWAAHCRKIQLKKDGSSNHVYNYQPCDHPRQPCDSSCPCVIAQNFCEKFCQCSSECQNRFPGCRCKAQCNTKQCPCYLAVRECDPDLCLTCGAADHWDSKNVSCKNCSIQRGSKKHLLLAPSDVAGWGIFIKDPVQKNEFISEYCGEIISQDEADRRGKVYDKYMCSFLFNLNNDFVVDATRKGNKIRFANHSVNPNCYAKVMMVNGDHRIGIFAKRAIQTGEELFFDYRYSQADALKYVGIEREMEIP
wild type PRC2 (wtPRC2) complex, sequence (Q15022 whole entry partner): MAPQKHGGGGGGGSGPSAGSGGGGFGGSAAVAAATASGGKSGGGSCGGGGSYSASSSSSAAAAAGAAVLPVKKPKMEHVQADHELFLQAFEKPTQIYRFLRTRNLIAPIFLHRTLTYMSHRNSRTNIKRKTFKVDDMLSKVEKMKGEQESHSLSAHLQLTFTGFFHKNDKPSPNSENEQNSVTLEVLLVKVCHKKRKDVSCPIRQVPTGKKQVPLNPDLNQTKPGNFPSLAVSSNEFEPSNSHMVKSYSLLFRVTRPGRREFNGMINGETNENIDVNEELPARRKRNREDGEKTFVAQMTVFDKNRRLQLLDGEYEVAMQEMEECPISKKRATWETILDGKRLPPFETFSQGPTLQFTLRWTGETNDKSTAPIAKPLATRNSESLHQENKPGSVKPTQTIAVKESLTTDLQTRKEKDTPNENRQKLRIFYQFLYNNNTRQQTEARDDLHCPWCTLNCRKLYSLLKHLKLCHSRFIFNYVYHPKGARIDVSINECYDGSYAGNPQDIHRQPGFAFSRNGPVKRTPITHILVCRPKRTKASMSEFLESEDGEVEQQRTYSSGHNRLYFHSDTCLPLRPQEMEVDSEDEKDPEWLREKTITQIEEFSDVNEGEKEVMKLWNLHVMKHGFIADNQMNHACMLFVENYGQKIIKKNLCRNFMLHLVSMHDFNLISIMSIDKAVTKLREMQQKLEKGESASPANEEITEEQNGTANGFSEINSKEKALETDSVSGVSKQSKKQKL
wild type PRC2 (wtPRC2) complex, sequence (Q09028 whole entry partner): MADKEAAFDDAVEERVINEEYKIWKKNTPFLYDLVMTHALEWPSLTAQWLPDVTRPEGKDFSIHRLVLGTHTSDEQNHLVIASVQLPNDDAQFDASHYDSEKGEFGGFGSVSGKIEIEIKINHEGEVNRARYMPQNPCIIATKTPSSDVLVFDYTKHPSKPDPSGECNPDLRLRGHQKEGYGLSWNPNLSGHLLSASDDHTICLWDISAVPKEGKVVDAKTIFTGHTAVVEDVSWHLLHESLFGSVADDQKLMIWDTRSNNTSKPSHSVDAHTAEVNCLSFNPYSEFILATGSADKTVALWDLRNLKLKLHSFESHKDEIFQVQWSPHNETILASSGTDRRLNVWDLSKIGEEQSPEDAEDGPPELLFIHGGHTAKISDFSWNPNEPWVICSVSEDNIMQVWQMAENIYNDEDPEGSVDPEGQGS
wild type PRC2 (wtPRC2) complex, sequence (Q6ZN18 whole entry partner): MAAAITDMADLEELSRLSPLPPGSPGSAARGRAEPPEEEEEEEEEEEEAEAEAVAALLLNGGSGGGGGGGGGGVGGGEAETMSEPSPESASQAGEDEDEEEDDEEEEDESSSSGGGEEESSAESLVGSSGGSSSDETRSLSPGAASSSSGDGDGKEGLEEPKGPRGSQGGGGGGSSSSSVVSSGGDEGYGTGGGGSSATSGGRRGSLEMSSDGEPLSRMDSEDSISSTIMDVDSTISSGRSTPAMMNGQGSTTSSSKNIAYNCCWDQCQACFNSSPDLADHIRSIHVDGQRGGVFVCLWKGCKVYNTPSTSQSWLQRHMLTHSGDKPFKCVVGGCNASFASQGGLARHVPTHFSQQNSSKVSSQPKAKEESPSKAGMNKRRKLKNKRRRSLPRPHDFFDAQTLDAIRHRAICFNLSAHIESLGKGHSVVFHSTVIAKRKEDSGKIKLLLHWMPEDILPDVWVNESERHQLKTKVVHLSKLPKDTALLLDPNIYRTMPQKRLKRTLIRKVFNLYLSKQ
In short: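 Pentameric PRC2 (EZH2, SUZ12, EED, Rbap48, AEBP), 12 nM final, preincubated 20 min with compound and SAM, then 1.5 μM biotinylated H3K27me0 peptide, 1 μM SAM, pH 8.0, 120 min at rt. SAH quantified by LC-MS/MS with d4-SAH; control-normalized activity fitted for IC50.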

[2] = test system: H3K27 methylation in G401 cell; experiment: ELISA (H3K27 methylation) assay in G401 cells; format: cell-based, human; details: Homo sapiens
In short: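 G401 cells treated 48 h with 3-fold dilutions (8 or 12 points, top 20 μM). Acid-extracted histones probed by ELISA for H3K27me3 or H3K27me2 with ECL readout, normalized to total H3. Percent inhibition versus DMSO fitted to dose-response curve for IC50.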

[3] = EED-H3K27Me3 peptide competition, AlphaScreen, read-out: (a) IC50 EED Alphascreen binding Qualified
[4] = PRC2 LC-MS assay, read-out: (b) IC50 EED LC-MS Qualified
[5] = G-401, H3K27 methylation ELISA, read-out: (c) IC50 ELISA Qualified
[6] = read-out: (a) IC50, EED Alphascreen binding Qualified
[7] = read-out: (b) IC50, EED LC-MS Qualified
[8] = G-401, read-out: (c) IC50, ELISA Qualified
[9] = read-out: (a) IC50 EED Alphascreen binding Qualified
[10] = read-out: (b) IC50 EED LC-MS Qualified
[11] = G-401, read-out: (c) IC50 ELISA Qualified

T1 sequence (O75530 whole entry): as the sequence (O75530 whole entry) above

Row | IC50 (EED (1-441)-His protein; [3]) [nM] | IC50 [1, 4] [nM] | IC50 [2, 5] [nM] | IC50 (EED (1-441)-His protein; [6]) [nM] | IC50 [1, 7] [nM] | IC50 [2, 8] [nM] | Compound | also measured
1 | 20 | 150 | 55 | – | – | – | COc1cccc(F)c1CNc1ccc(-c2ccc(N3CCCC3=O)nc2)c2nncn12 [Example 215, 1-(5-(5-((2-fluoro-6-methoxybenzyl)amino)-[1,2,4]triazolo[4,3-a]pyridin-8-yl)pyridin-2-yl)pyrrolidin-2-one] | –
2 | – | – | – | 48.7 | 90.1 | 26.1 | COc1cccc(F)c1CNc1ccc(-c2cnc(C)nc2)c2nncn12 [Example 161, N-(2-fluoro-6-methoxybenzyl)-8-(2-methylpyrimidin-5-yl)-[1,2,4] triazolo[4,3-a]pyridin-5-amine] | –
3 | – | – | – | – | – | – | COc1cccc(F)c1CNc1ccc(-n2cnc(C)c2)c2nncn12 [Example 354, N-(2-fluoro-6-methoxybenzyl)-8-(4-methyl-1H-imidazol-1-yl)-[1,2,4]triazolo [4,3-a]pyridin-5-amine] | IC50 (EED (1-441)-His protein; [9]): 26.1 nM; IC50 [1, 10]: 60.6 nM; IC50 [2, 11]: 21.4 nM
4 | – | – | – | – | – | – | COc1cccc(F)c1CNc1ccc(-n2ccnc2)c2nncn12 [Example 363, N-(2-fluoro-6-methoxybenzyl)-8-(1H-imidazol-1-yl)-[1,2,4]triazolo[4,3-a] pyridin-5-amine] | IC50 (EED (1-441)-His protein; [9]): 25 nM; IC50 [1, 10]: 55.4 nM; IC50 [2, 11]: 19.3 nM
5 | – | – | – | 37.9 | 291 | 54 | COc1ccccc1CNc1ccc(-c2cccc(CN(C)C)c2)c2nncn12 [Example 28, 8-(3-((dimethylamino)methyl)phenyl)-N-(2-methoxybenzyl)-[1,2,4] triazolo[4,3-a]pyridin-5-amine] | –
6 | 23.7 | 93.4 | 6.4 | – | – | – | COc1cccc(F)c1CNc1ccc(-c2cnc(S(C)(=O)=O)cc2C(F)F)c2nncn12 [Example 301, 8-(4-(difluoromethyl)-6-(methylsulfonyl)pyridin-3-yl)-N-(2-fluoro-6-methoxybenzyl)-[1,2,4]triazolo[4,3-a] pyridin-5-amine] | –
7 | – | – | – | 13.8 | 38.9 | 19.6 | COc1cccc(F)c1CNc1ccc(-c2cncc(F)c2)c2nncn12 [Example 158, N-(2-fluoro-6-methoxybenzyl)-8-(5-fluoropyridin-3-yl)-[1,2,4]triazolo[4,3-a] pyridin-5-amine] | –
8 | 20.5 | 20 | 16.5 | – | – | – | COc1cccc(F)c1CNc1ccc(-c2cccnc2Cl)c2nncn12 [Example 213, 8-(2-chloropyridin-3-yl)-N-(2-fluoro-6-methoxybenzyl)-[1,2,4]triazolo[4,3-a]pyridin-5-amine] | –
